Here are results for one molecule from patent US20250326866A1, “TRANSFERRIN RECEPTOR TARGETING PEPTIDE OLIGONUCLEOTIDE COMPLEXES AND METHODS OF USE THEREOF” (Blaze Bioscience, Inc., priority 2021, published 2025).

The assay relates to CRE-driven luciferase. As to the kind of experiment: CRE-luciferase reporter mice, in vivo brain luminescence. The note with it: 4 hours after IP 1.68 mg rolipram and 0.84 mg forskolin given together.

From the text: Transgenic mice expressing firefly luciferase under the control of a cyclic AMP response element (CRE) can be used. Under conditions of elevated cyclic AMP (cAMP) or other mechanisms that activate the transcription factor CRE Binding Protein 1 (CREB), cells in these mice can express luciferase, which can be measured in whole animal luminescence instrumentation (IVIS imager) after IV dosage with a luciferin formulated for animal use. Mice can be validated to express the transgene under proper response element control by dosing these mice with forskolin and rolipram, two drugs that stimulate neuronal cAMP production and inhibit its degradation (respectively). […]
Under conditions of elevated cyclic AMP (cAMP) or other mechanisms that activate the transcription factor CRE Binding Protein 1 (CREB), cells in these mice express luciferase, which are measured in whole animal luminescence instrumentation (IVIS imager) after IV dosage with a luciferin formulated for animal use. […]
Luminescence was measured in anesthetized mice on a Xenogen IVIS instrument with a 1 min exposure. […] For the test peptides for comparison, identical regions of interest encompassing the entire brain were draw and quantified using LivingImage software (version 4.0, PerkinElmer, FIG. 16). […]
Transgenic Mice were first dosed with luciferin and luminescence was measured (“unstimulated”).

As to `COc1ccc(C2CNC(=O)C2)cc1OC1CCCC1` (stereo not shown) [rolipram], the “CRE-Luc brain luminescence, positive control” value is “high levels of luminescence”.
